The text below walks through data of US8846746B2, “Pyrazole compound and pharmaceutical use thereof” (Japan Tobacco Inc., priority 2011, dated 2014).

For orientation: IC50 means the point on the concentration scale where inhibition reaches its midpoint. A low value points to greater potency in that assay. By inhibition is commonly meant the drop in the measured response relative to a control, in per cent. Read a high inhibition as a strong effect.

The structures appear in SMILES notation.

The target of the first assay is human SGLT1 (Homo sapiens (Human), UniProt P13866). In words: SGLT1 inhibitory activity: 14C-AMG uptake into CHO-K1 cell line stably expressing human SGLT1. In kind it is cell-based. The settings on record: 14C-AMG uptake, CHO-K1 cells stably expressing human SGLT1. The procedure, abridged: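 CHO-K1 cells stably expressing human SGLT1 were pre-incubated 20 min in Na(−) buffer (pH 7.4). Test compound in Na(+) buffer with BSA was added with ¹⁴C-AMG (8 kBq) plus unlabelled AMG (2 mM in the added solution) for 1 h at 37 °C.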
human SGLT1, sequence (P13866 whole entry): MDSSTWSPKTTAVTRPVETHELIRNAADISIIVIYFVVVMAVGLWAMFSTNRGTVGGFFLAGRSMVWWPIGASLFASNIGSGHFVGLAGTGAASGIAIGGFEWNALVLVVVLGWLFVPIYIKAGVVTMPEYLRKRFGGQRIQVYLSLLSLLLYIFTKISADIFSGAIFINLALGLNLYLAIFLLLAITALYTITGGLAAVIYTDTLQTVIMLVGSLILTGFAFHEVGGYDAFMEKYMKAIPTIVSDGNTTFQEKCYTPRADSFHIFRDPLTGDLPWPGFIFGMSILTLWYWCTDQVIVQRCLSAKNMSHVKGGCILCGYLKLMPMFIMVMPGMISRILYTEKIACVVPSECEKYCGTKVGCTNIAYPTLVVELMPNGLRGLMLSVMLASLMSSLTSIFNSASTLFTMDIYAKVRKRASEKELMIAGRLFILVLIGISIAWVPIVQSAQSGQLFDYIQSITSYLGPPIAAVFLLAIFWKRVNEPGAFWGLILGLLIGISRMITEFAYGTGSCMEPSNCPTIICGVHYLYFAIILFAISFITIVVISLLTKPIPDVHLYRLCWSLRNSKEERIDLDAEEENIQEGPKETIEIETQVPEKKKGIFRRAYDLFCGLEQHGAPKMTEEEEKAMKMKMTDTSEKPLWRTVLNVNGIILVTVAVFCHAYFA
The compound `CCCc1cccc(-c2cc(NC(=O)[C@@H]3CNC(=O)O3)nn2-c2ccccc2)c1` [Example 257] came in with an IC50 of 76 nM. With `CCCc1cccc(-c2cc(NC(=O)[C@H]3CNC(=O)O3)nn2-c2ccccc2)c1` [Example 258], the IC50 came out at 23 nM. Against the preceding compound, the IC50 is about 3.3-fold lower. On the same count and under the same terms, under `O=C1C[C@H](C(=O)Nc2cc(-c3cccc(OCC(F)(F)F)c3)n(-c3ccccc3)n2)CN1` [Example 260] stands 23 nM.

Turning to `CCCc1cccc(-c2cc(NC(=O)[C@@H]3CNC(=O)C3)nn2-c2ccccc2C)c1` [Example 261], the IC50 was 3.77 nM. On the same count and under the same terms, under `CCCc1cccc(-c2cc(NC(=O)[C@@H]3CNC(=O)C3)nn2-c2cccc(Cl)c2)c1` [Example 262] stands 6 nM; under `O=C1NC[C@@H](C(=O)Nc2cc(-c3cccc(OC(F)(F)F)c3)n(-c3ccccc3)n2)O1` [Example 263], 370 nM; under `O=C1NC[C@H](C(=O)Nc2cc(-c3cccc(OC(F)(F)F)c3)n(-c3ccccc3)n2)O1` [Example 264], 39 nM. On the same count and under the same terms, the same measure for `O=C1NC[C@@H](C(=O)Nc2cc(-c3cccc(OC(F)(F)F)c3)n(-c3ccccc3)n2)N1` [Example 266]: 45 nM; for `O=C1NC[C@H](C(=O)Nc2cc(-c3cccc(OC(F)(F)F)c3)n(-c3ccccc3)n2)N1` [Example 267]: 81 nM; for `CCCCc1cccc(-c2cc(NC(=O)[C@@H]3CNC(=O)N3)nn2-c2ccccc2)c1` [Example 268]: 8.5 nM. Still for that read-out and setting: under `COC(C)(C)c1cccc(-c2cc(NC(=O)[C@H]3CNC(=O)N3)nn2-c2ccccc2)c1` [Example 269] stands 92 nM; under `COC(C)(C)c1cccc(-c2cc(NC(=O)[C@@H]3CNC(=O)N3)nn2-c2ccccc2)c1` [Example 270], 45 nM; under `COC(C)(C)c1cccc(-c2cc(NC(=O)C3CNC(=O)NC3)nn2-c2ccccc2)c1` [Example 271], 290 nM. Turning to `O=C1C[C@H](C(=O)Nc2cc(-c3cccc(OCCC(F)(F)F)c3)n(-c3ccccc3)n2)CN1` [Example 272], the IC50 was 37 nM. Still for that read-out and setting: the same measure for `O=C1C[C@H](C(=O)Nc2cc(-c3cccc(OCCCC(F)(F)F)c3)n(-c3ccccc3)n2)CN1` [Example 273]: 27 nM; for `O=C1C[C@H](C(=O)Nc2cc(-c3cccc(COCC(F)(F)F)c3)n(-c3ccccc3)n2)CN1` [Example 279]: 17.5 nM; for `O=C1C[C@@H](C(=O)Nc2cc(-c3cccc(COCC(F)(F)F)c3)n(-c3ccccc3)n2)CN1` [Example 280]: 9.8 nM.

`O=C1C[C@H](C(=O)Nc2cc(-c3cccc(COCCC(F)(F)F)c3)n(-c3ccccc3)n2)CN1` [Example 281] registered an IC50 of 21.5 nM. Still for that read-out and setting: under `O=C1C[C@@H](C(=O)Nc2cc(-c3cccc(COCCC(F)(F)F)c3)n(-c3ccccc3)n2)CN1` [Example 282] stands 9.9 nM. Same read-out and setting: under `CCOCc1cccc(-c2cc(NC(=O)[C@@H]3CNC(=O)C3)nn2-c2ccccc2)c1` [Example 283] stands 110 nM; under `CCCOc1cccc(-c2cc(NC(=O)[C@@H]3CNC(=O)C3)nn2-c2ccccc2)c1` [Example 284], 75 nM. Compound `CCOCc1cccc(-c2cc(NC(=O)[C@H]3CNC(=O)C3)nn2-c2ccccc2)c1` [Example 285] displayed an IC50 of 21 nM. For `CC(C)COc1cccc(-c2cc(NC(=O)[C@@H]3CNC(=O)C3)nn2-c2ccccc2)c1` [Example 286], the IC50 was 30 nM.

As for `CC(C)COc1cccc(-c2cc(NC(=O)[C@H]3CNC(=O)C3)nn2-c2ccccc2)c1` [Example 287], the IC50 came out at 12 nM. `CC(C)(C)COc1cccc(-c2cc(NC(=O)[C@@H]3CNC(=O)C3)nn2-c2ccccc2)c1` [Example 288] showed an IC50 of 11.5 nM. On the same count and under the same terms, the same measure for `CC(C)(C)COc1cccc(-c2cc(NC(=O)[C@H]3CNC(=O)C3)nn2-c2ccccc2)c1` [Example 289]: 4.5 nM; for `CC(C)(C)Oc1cccc(-c2cc(NC(=O)[C@@H]3CNC(=O)C3)nn2-c2ccccc2)c1` [Example 290]: 5.5 nM.

For the compound `CCC(C)(C)Oc1cccc(-c2cc(NC(=O)[C@@H]3CNC(=O)C3)nn2-c2ccccc2)c1` [Example 291], the IC50 was determined as 5.1 nM. Still for that read-out and setting: the same measure for `CC(C)(C)CCOc1cccc(-c2cc(NC(=O)[C@@H]3CNC(=O)C3)nn2-c2ccccc2)c1` [Example 294]: 24.5 nM; for `CCCc1cccc(-c2cc(NC(=O)[C@@H]3CNC(=O)N3CC)nn2-c2ccccc2)c1` [Example 295]: 29 nM. Same read-out and setting: under `CCCc1cccc(-c2cc(NC(=O)[C@@H]3CNC(=O)N3CCC)nn2-c2ccccc2)c1` [Example 297] stands 71 nM; under `CC(C)OCc1cccc(-c2cc(NC(=O)[C@@H]3CNC(=O)C3)nn2-c2ccccc2)c1` [Example 299], 33 nM; under `CCCOCc1cccc(-c2cc(NC(=O)[C@@H]3CNC(=O)C3)nn2-c2ccccc2)c1` [Example 300], 38 nM. Still for that read-out and setting: under `CC(C)Oc1cccc(-c2cc(NC(=O)[C@@H]3CNC(=O)C3)nn2-c2ccccc2)c1` [Example 301] stands 63 nM; under `CCCc1cccc(-c2cc(NC(=O)C3CCS(=O)(=O)CC3)nn2-c2ccccc2)c1` [Example 302], 1.5 nM; under `CCCc1cccc(-c2cc(NC(=O)[C@H]3CNC(=O)N3CC)nn2-c2ccccc2)c1` [Example 303], 4.7 nM. The compound `CCCc1cccc(-c2cc(NC(=O)[C@H]3CNC(=O)N3CCC)nn2-c2ccccc2)c1` [Example 304] displayed an IC50 of 10 nM.

With `O=C1NC[C@H](C(=O)Nc2cc(-c3cccc(COCC(F)(F)F)c3)n(-c3ccccc3)n2)O1` [Example 305], the concentration for half-maximal inhibition (IC50) worked out at 29 nM. Still for that read-out and setting: the same measure for `CCCCc1cccc(-c2cc(NC(=O)[C@H]3CNC(=O)O3)nn2-c2ccccc2)c1` [Example 306]: 13 nM. As for `CC(C)OCc1cccc(-c2cc(NC(=O)[C@H]3CNC(=O)C3)nn2-c2ccccc2)c1` [Example 311], the IC50 worked out at 17.5 nM. On the same count and under the same terms, the same measure for `CCCOCc1cccc(-c2cc(NC(=O)[C@H]3CNC(=O)C3)nn2-c2ccccc2)c1` [Example 312]: 22 nM. The same measure, in the same setting: the same measure for `CC(C)(C)OCc1cccc(-c2cc(NC(=O)[C@@H]3CNC(=O)C3)nn2-c2ccccc2)c1` [Example 313]: 19.5 nM; for `CC(C)COCc1cccc(-c2cc(NC(=O)[C@@H]3CNC(=O)C3)nn2-c2ccccc2)c1` [Example 314]: 15 nM. The same measure, in the same setting: under `CC(C)(C)COCc1cccc(-c2cc(NC(=O)[C@@H]3CNC(=O)C3)nn2-c2ccccc2)c1` [Example 315] stands 15.5 nM. In turn, `CCCCOc1cccc(-c2cc(NC(=O)[C@@H]3CNC(=O)C3)nn2-c2ccccc2)c1` [Example 316] showed an IC50 of 39 nM. This IC50 lies about 2.5-fold higher than the previous one. Same read-out and setting: the same measure for `CCCc1cccc(-c2cc(NC(=O)C3CC[S+]([O-])CC3)nn2-c2ccccc2)c1` (stereo not shown) [Example 318]: 3.2 nM; for `CC(C)CCOc1cccc(-c2cc(NC(=O)[C@@H]3CNC(=O)C3)nn2-c2ccccc2)c1` [Example 319]: 28 nM. With `CC(C)Oc1cccc(-c2cc(NC(=O)[C@H]3CNC(=O)C3)nn2-c2ccccc2)c1` [Example 321], the IC50 amounted to 22 nM. Still for that read-out and setting: the same measure for `CCCc1cccc(-c2cc(NC(=O)[C@@H]3CNC(=O)C3)nn2-c2cc(C)cc(C)c2)c1` [Example 322]: 4.7 nM. On the same count and under the same terms, the same measure for `CCCc1cccc(-c2cc(NC(=O)[C@@H]3CNC(=O)C3)nn2-c2cccc(C)c2C)c1` [Example 323]: 4.8 nM; for `CCCc1cccc(-c2cc(NC(=O)[C@@H]3CNC(=O)C3)nn2-c2cc(C)ccc2C)c1` [Example 324]: 2.2 nM. The same measure, in the same setting: the same measure for `CCCc1cccc(-c2cc(NC(=O)[C@@H]3CNC(=O)C3)nn2-c2c(C)cccc2C)c1` [Example 325]: 47 nM. For the compound `CCCOC(C)(C)c1cccc(-c2cc(NC(=O)[C@@H]3CNC(=O)C3)nn2-c2ccccc2)c1` [Example 326], the IC50 is 15 nM. In turn, `CCCc1cccc(-c2cc(NC(=O)[C@H]3CNC(=O)N3C(C)C)nn2-c2ccccc2)c1` [Example 328] yielded an IC50 of 29 nM.

The assay is the same for the next values; noted with them: CHO-K1, at 0.1 uM.
As to `COCc1cccc(-c2cc(NC(=O)[C@@H]3CNC(=O)C3)nn2-c2ccccc2)c1` [Example 265], the inhibition at 0.1 µM came out at 17%.

For the compound `CCCc1cccc(-c2cc(NC(=O)C3CNC(=O)CO3)nn2-c2ccccc2)c1` (stereo not shown) [Example 275], testing at 0.1 µM gave an inhibition of 48%. The same measure, in the same setting: under `O=C1COC(C(=O)Nc2cc(-c3cccc(OC(F)(F)F)c3)n(-c3ccccc3)n2)CN1` (stereo not shown) [Example 276] stands 30%. On the same count and under the same terms, under `CCN1C(=O)NC[C@H]1C(=O)Nc1cc(-c2cccc(OC(F)(F)F)c2)n(-c2ccccc2)n1` [Example 296] stands 48%; under `CCCN1C(=O)NC[C@H]1C(=O)Nc1cc(-c2cccc(OC(F)(F)F)c2)n(-c2ccccc2)n1` [Example 298], 38%. Turning to `CCC1C(=O)NCC1C(=O)Nc1cc(-c2cccc(OC(F)(F)F)c2)n(-c2ccccc2)n1` (stereo not shown) [Example 310], the inhibition at 0.1 µM turned out to be 42%. Compound `CCCc1cccc(-c2cc(NC(=O)C3CC[S+]([O-])CC3)nn2-c2ccccc2)c1` (stereo not shown) [Example 317] gave an inhibition at 0.1 µM of 40%.

Staying with this assay, now noted: CHO-K1, at 0.3 uM.
With `CCCc1cccc(-c2cc(NC(=O)[C@@H]3CNC(=O)N3C(C)C)nn2-c2ccccc2)c1` [Example 327], the inhibition at 0.3 µM turned out to be 15%. The same measure, in the same setting: under `CCCc1cccc(-c2cc(NC(=O)[C@@H]3CN(CC)C(=O)N3)nn2-c2ccccc2)c1` [Example 329] stands 35%.

The assay is the same for the next values; noted with them: at 0.1 uM.
Regarding `CCCc1cccc(-c2cc(NC(=O)C3CNC(=O)CO3)nn2-c2ccccc2)c1` (stereo not shown) [Example 277], the “human SGLT1 % Inhibition” value turned out to be 48%.

For the compound `O=C1COC(C(=O)Nc2cc(-c3cccc(OC(F)(F)F)c3)n(-c3ccccc3)n2)CN1` (stereo not shown) [Example 278], the “human SGLT1 % Inhibition” value is 34%.

The same assay, now with this note: at 0.3 uM.
`CCCc1cccc(-c2cc(NC(=O)C3CCCC(=O)NC3)nn2-c2ccccc2)c1` (stereo not shown) [Example 255]: the “human SGLT1 % Inhibition” value was 7%. `CCCc1cccc(-c2cc(NC(=O)C3CCCC(=O)NC3)nn2-c2ccccc2)c1` (stereo not shown) [Example 256]: the “human SGLT1 % Inhibition” value is 3%.
